From ChEMBL document CHEMBL5365497, “Developing Novel Coumarin-Containing Azoles Antifungal Agents by the Scaffold Merging Strategy for Treating Azole-Resistant Candidiasis” (J Med Chem, 2023)
Converted amounts (≈) assume the structure as drawn. The source made the active and inactive calls. No cut-off for these calls is given here.

Assays:
[1] = test system: Candida albicans; test: Antifungal activity against fluconazole-resistant Candida albicans 632 assessed as fungal growth inhibition by CLSI based microdilution method; assay type: functional
[2] = test system: Candida albicans; test: Antifungal activity against Candida albicans CPCC400616 assessed as fungal growth inhibition by CLSI based microdilution method; assay type: functional
[3] = test system: Cryptococcus neoformans; test: Antifungal activity against Cryptococcus neoformans assessed as fungal growth inhibition by CLSI based microdilution method; assay type: functional
[4] = test system: Pichia kudriavzevii; test: Antifungal activity against Pichia kudriavzevii assessed as fungal growth inhibition by CLSI based microdilution method; assay type: functional
[5] = test system: Candida albicans; test: Antifungal activity against Candida albicans SC5314 assessed as fungal growth inhibition by CLSI based microdilution method; assay type: functional
[6] = test system: Candida albicans; test: Antifungal activity against fluconazole-resistant Candida albicans 901 assessed as fungal growth inhibition by CLSI based microdilution method; assay type: functional
[7] = test system: Candida albicans; test: Antifungal activity against fluconazole-resistant Candida albicans 904 assessed as fungal growth inhibition measured for 48 hrs by CLSI based microdilution method; assay type: functional
[8] = test system: Candida albicans; test: Antifungal activity against Candida albicans SC5314 assessed as fragmented nuclei at 16 ug/ml incubated for 24 hrs by TEM analysis; assay type: functional, organism-based; conditions: dose 16.0 µg/ml
[9] = test system: Candida parapsilosis; test: Antifungal activity against Candida parapsilosis assessed as fungal growth inhibition by CLSI based microdilution method; assay type: functional; conditions: Lodderomyces parapsilosis
[10] = test system: Candida albicans; test: Antifungal activity against Candida albicans SC5314 assessed as destruction of cell membrane at 16 ug/ml incubated for 24 hrs by TEM analysis; assay type: functional, organism-based; conditions: dose 16.0 µg/ml
[11] = test system: Candida albicans; test: Antifungal activity against fluconazole-resistant Candida albicans 904 assessed as fungal growth inhibition by CLSI based microdilution method; assay type: functional
[12] = test system: Candida albicans; test: Antifungal activity against fluconazole-resistant Candida albicans 17# assessed as fungal growth inhibition by CLSI based microdilution method; assay type: functional
[13] = test system: Candida tropicalis; test: Antifungal activity against Candida tropicalis assessed as fungal growth inhibition by CLSI based microdilution method; assay type: functional
[14] = test system: Nakaseomyces glabratus; test: Antifungal activity against Candida glabrata assessed as fungal growth inhibition by CLSI based microdilution method; assay type: functional
[15] = test system: Candida albicans; test: Antifungal activity against fluconazole-resistant Candida albicans CaR assessed as fungal growth inhibition by CLSI based microdilution method; assay type: functional
[16] = test system: Candida albicans; test: Antifungal activity against Candida albicans SC5314 assessed as destruction of cell wall at 16 ug/ml incubated for 24 hrs by TEM analysis; assay type: functional, organism-based; conditions: dose 16.0 µg/ml
[17] = test system: Candida albicans; test: Antifungal activity against fluconazole-resistant Candida albicans 904 assessed as reduction in CPH1 expression at 16 ug/ml incubated for 12 hrs by RT-PCR analysis; assay type: functional, organism-based; conditions: dose 16.0 µg/ml
[18] = Stability in mouse plasma assessed as compound remaining at 1 uM measured for 180 mins by LC-MS/MS analysis; assay type: ADME, cell-free; conditions: read-out: Stability
[19] = test system: Candida albicans; test: Antifungal activity against Candida albicans CPCC400616 assessed as reduction in EFG1 expression at 2 ug/ml incubated for 12 hrs by RT-PCR analysis; assay type: functional, organism-based; conditions: dose 2.0 µg/ml
[20] = Metabolic stability in mouse liver microsomes assessed as half life incubated for 5 to 60 mins by LC-MS/MS analysis; assay type: ADME, Microsome; conditions: time 5-60 min
[21] = test system: Candida albicans; test: Induction of ROS production in fluconazole-resistant Candida albicans 904 at 64 ug/ml incubated for 30 mins by fluorescence microscopy; assay type: functional, organism-based; conditions: dose 64.0 µg/ml
[22] = test system: Candida albicans; test: Antifungal activity against fluconazole-resistant Candida albicans 904 assessed as inhibition of yeast to hypha morphological transition at 16 ug/ml incubated for 4 hrs by inverted microscopy; assay type: functional, organism-based; conditions: dose 16.0 µg/ml
[23] = Cytotoxicity against human MRC5 cells assessed as cell growth inhibition by MTT assay; assay type: toxicity, cell-based
[24] = test system: Candida albicans; test: Antifungal activity against Candida albicans CPCC400616 assessed as inhibition of yeast to hypha morphological transition at 2 ug/ml incubated for 4 hrs by inverted microscopy; assay type: functional, organism-based; conditions: dose 2.0 µg/ml
[25] = biological target: T1, Lanosterol 14-alpha demethylase (Candida albicans (strain SC5314 / ATCC MYA-2876) (Yeast), UniProt P10613); test: Inhibition of CYP51 in Candida albicans SC5314 assessed as increase in lanosterol level at 0.03125 ug/ml incubated for 24 hrs by GC-MS analysis; conditions: at 0.03125 µg/mL
T1 sequence (P10613 whole entry): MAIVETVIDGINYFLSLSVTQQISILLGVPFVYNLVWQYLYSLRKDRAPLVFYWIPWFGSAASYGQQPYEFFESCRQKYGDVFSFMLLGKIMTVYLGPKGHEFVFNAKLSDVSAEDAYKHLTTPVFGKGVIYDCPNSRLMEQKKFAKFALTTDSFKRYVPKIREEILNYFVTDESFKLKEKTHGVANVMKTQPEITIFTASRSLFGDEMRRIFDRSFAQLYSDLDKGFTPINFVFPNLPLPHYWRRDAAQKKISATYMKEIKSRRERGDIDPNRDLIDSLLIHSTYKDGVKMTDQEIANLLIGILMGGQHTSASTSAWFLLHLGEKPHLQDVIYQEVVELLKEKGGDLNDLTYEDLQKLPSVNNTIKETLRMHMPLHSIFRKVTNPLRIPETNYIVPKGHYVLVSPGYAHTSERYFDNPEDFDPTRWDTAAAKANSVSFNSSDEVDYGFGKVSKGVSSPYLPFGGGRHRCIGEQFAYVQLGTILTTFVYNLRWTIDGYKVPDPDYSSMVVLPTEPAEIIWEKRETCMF

[26] = test system: Candida albicans; test: Antifungal activity against Candida albicans CPCC400616 assessed as reduction in CPH1 expression at 2 ug/ml incubated for 12 hrs by RT-PCR analysis; assay type: functional, organism-based; conditions: dose 2.0 µg/ml
[27] = test system: Candida albicans; test: Antifungal activity against fluconazole-resistant Candida albicans 904 assessed as decrease in CDR2 expression at 16 ug/ml measured after 16 hrs by RT-PCR analysis; assay type: functional, organism-based; conditions: dose 16.0 µg/ml
[28] = test system: Candida albicans; test: Antibiofilm activity against fluconazole-resistant Candida albicans 904 incubated for 24 hrs by XTT reduction assay; assay type: functional, organism-based; conditions: dose <= 128.0 µg/ml
[29] = test system: Candida albicans; test: Antifungal activity against Candida albicans CPCC400616 assessed as reduction in ALS3 expression at 2 ug/ml incubated for 12 hrs by RT-PCR analysis; assay type: functional, organism-based; conditions: dose 2.0 µg/ml
[30] = Stability in mouse plasma assessed as half life at 1 uM measured for 180 mins by LC-MS/MS analysis; assay type: ADME, cell-free
[31] = test system: Candida albicans; test: Antifungal activity against Candida albicans CPCC400616 assessed as reduction in TEC1 expression at 2 ug/ml incubated for 12 hrs by RT-PCR analysis; assay type: functional, organism-based; conditions: dose 2.0 µg/ml
[32] = Cytotoxicity against mouse J774.A1 cells assessed as cell growth inhibition by MTT assay; assay type: toxicity, cell-based
[33] = test system: Candida albicans; test: Antifungal activity against fluconazole-resistant Candida albicans 904 assessed as decrease in ERG11 expression at 16 ug/ml measured after 16 hrs by RT-PCR analysis; assay type: functional, organism-based; conditions: dose 16.0 µg/ml
[34] = biological target: T1, Lanosterol 14-alpha demethylase; test: Inhibition of CYP51 in Candida albicans SC5314 assessed as increase in obtusifoliol level at 0.03125 ug/ml incubated for 24 hrs by GC-MS analysis; conditions: at 0.03125 µg/mL
[35] = test system: Candida albicans; test: Antifungal activity against fluconazole-resistant Candida albicans 904 assessed as decrease in MDR1 expression at 16 ug/ml measured after 16 hrs by RT-PCR analysis; assay type: functional, organism-based; conditions: dose 16.0 µg/ml
[36] = test system: Candida albicans; test: Antifungal activity against fluconazole-resistant Candida albicans 904 assessed as reduction in TEC1 expression at 16 ug/ml incubated for 12 hrs by RT-PCR analysis; assay type: functional, organism-based; conditions: dose 16.0 µg/ml
[37] = test system: Candida albicans; test: Antifungal activity against fluconazole-resistant Candida albicans 904 assessed as reduction in ALS3 expression at 16 ug/ml incubated for 12 hrs by RT-PCR analysis; assay type: functional, organism-based; conditions: dose 16.0 µg/ml
[38] = test system: Candida albicans; test: Antibiofilm activity against Candida albicans CPCC400616 incubated for 24 hrs by XTT reduction assay; assay type: functional, organism-based; conditions: dose <= 128.0 µg/ml
[39] = test system: Candida albicans; test: Antifungal activity against fluconazole-resistant Candida albicans 904 assessed as decrease in CDR1 expression at 16 ug/ml measured after 16 hrs by RT-PCR analysis; assay type: functional, organism-based; conditions: dose 16.0 µg/ml
[40] = biological target: T1, Lanosterol 14-alpha demethylase; test: Inhibition of CYP51 in Candida albicans SC5314 assessed as ergosterol level at 0.03125 ug/ml incubated for 24 hrs by GC-MS analysis (reference value: 97.58 %); set-up: scale not given: the % may be the effect or the level left; conditions: at 0.03125 µg/mL
[41] = biological target: T1, Lanosterol 14-alpha demethylase; test: Inhibition of CYP51 in Candida albicans SC5314 assessed as increase in eburicol level at 0.03125 ug/ml incubated for 24 hrs by GC-MS analysis; conditions: at 0.03125 µg/mL
[42] = test system: Candida albicans; test: Antifungal activity against fluconazole-resistant Candida albicans 904 assessed as reduction in EFG1 expression at 16 ug/ml incubated for 12 hrs by RT-PCR analysis; assay type: functional, organism-based; conditions: dose 16.0 µg/ml

OC(Cn1cncn1)(Cn1cncn1)c1ccc(F)cc1F [FLUCONAZOLE]
MIC [1]: > 128 µg/mL | MIC [2]: 4 µg/mL (≈ 13.1 µM) | MIC [3]: 4 µg/mL (≈ 13.1 µM) | MIC [4]: 32 µg/mL (≈ 104 µM) | MIC [5]: 0.5 µg/mL (≈ 1.63 µM) | MIC [6]: > 128 µg/mL | MFC [7]: > 128 µg/mL | Activity [8]: Active | MIC [9]: 4 µg/mL (≈ 13.1 µM) | Activity [10]: Active | MIC [11]: > 128 µg/mL | MIC [12]: > 128 µg/mL | MIC [13]: 2 µg/mL (≈ 6.53 µM) | MIC [14]: 32 µg/mL (≈ 104 µM) | MIC [15]: > 128 µg/mL | Activity [16]: inactive

O=c1ccc2cc(COC(Cn3ccnc3)c3ccc(Cl)cc3Cl)ccc2o1 (centres undefined)
Activity [17]: Active | remaining at 3 h, 1 µM [18]: 98.7% | Activity [19]: Active | half-life [20]: 6.09 min | MIC [1]: 16 µg/mL (≈ 38.5 µM) | Activity [21]: Active | MIC [2]: 0.06 µg/mL (≈ 0.144 µM) | MIC [3]: 4 µg/mL (≈ 9.63 µM) | MIC [4]: 0.5 µg/mL (≈ 1.2 µM) | inhibition [22]: Active | IC50 [23]: 78.2 µM | inhibition [24]: Active | inhibition (INH) [25]: Active | Activity [26]: Active | Activity [27]: Active | Activity [28]: Dose-Dependent Effect | MIC [5]: 0.03 µg/mL (≈ 0.0722 µM) | Activity [29]: Active | MIC [6]: 32 µg/mL (≈ 77.1 µM) | half-life at 1 µM [30]: > 360 min | Activity [31]: Active | MIC [9]: < 0.25 µg/mL | IC50 [32]: 24.4 µM | Activity [33]: Active | inhibition (INH) [34]: Active | MIC [11]: 8 µg/mL (≈ 19.3 µM) | MIC [12]: 1 µg/mL (≈ 2.41 µM) | Activity [35]: Active | Activity [36]: Active | MIC [13]: < 0.25 µg/mL | Activity [37]: Active | Activity [38]: Dose-Dependent Effect | Activity [39]: Active | Activity [40]: 0.99% | inhibition (INH) [41]: Active | MIC [14]: 0.25 µg/mL (≈ 0.602 µM) | Activity [42]: Active | MIC [15]: 0.5 µg/mL (≈ 1.2 µM)
